Laboratory results: patent US4785080A, “Labeled analytes” (Baker Instruments Corporation, priority 1985, dated 1988)
Several values for one entry are separate records, joined by “and”; a condition that tells them apart may be missing. Equal entries are not always repeated.

Legend:
thyroxine antibody [1] = assay: Reference displacement curve, thyroxine vs thyroxine-S-peptide, fluorogenic substrate (Example XVII); format: binding; conditions: for Rate: antibody
Protocol: This Example illustrates the generation of a reference displacement curve using thyroxine-S peptide as the labeled analyte and 5'-0-acetyl uridine-3'-(4 methylumbelliferone-7-yl phosphate) as a fluorogenic substrate. The following reagents were prepared:
a. Thyroxine-S-Peptide labeled analyte: Material prepared as described in Examples I-IV, was diluted by a factor of 1:2000 in 0.1M sodium acetate buffer of pH 5.0.
b. Antibody: Antiserum was diluted by a factor of 1:2000 using 0.1M sodium acetate buffer of pH 5.0;
c. S-Protein: Purified material was brought to 2×10^-5 M using 0.1M sodium acetate buffer of pH 5.0;
d. Substrate: Seventeen milligrams of 5'-0-acetyl-2'-0-(tetrahydropyran-2-yl) uridine 3'-(4 methylumbelliferone-7-yl ammonium phosphate was stirred in 0.01HCl for 45 minutes and then extracted with ether. Fifty ml of 0.01M sodium acetate buffer, of pH 5, was then added to give the substrate solution;
e. Thyroxine antibody standards: Thyroxine solutions were freshly prepared to provide thyroxine concentrations of 0 ng/ml, 30 ng/ml, 60 ng/ml, 120 ng/ml, and 240 ng/ml in an aqueous medium containing human serum.
Seventy-five microliters of the standard thyroxine solution was pretreated with 20 ul of 0.5N sodium hydroxide […] at room temperature. One hundred microliters of the antibody and 300 ul of thyroxine-S peptide labeled analyte were then added, and the mixture was incubated for 30 minutes at room temperature. A mixture consisting of 1.8 ml of substrate and 100 ul S-protein was then added. After incubating for 5 minutes, the rate of increase of fluorescence was monitored over a 10 minute period. An Aminco Filter Fluorometer (Model J4-7440) equipped with an automatic 20 sample changer (Model 047-67059) was utilized with excitation at 325 nm and emission at 440 nm. The data points were taken for each sample at times 0, 5, and 10 minutes by an automatic data acquisition system. Table 7 summarizes the results:
In order to obtain a displacement curve, the data for duplicate points are averaged; and the % bound fraction (% B/Bo) is calculated from the equation: [formula] where Rate Bn is the rate corresponding to a non-zero standard and Rate Bo is that corresponding to the zero standard solution.

thyroxine antibody [2] = assay: Reference displacement curve, thyroxine, interconverted pipetting of labeled analyte and S-protein (Example XIX); format: binding; conditions: for 10^3 Rate: antibody
Text: This Example illustrates the interconversion of the thyroxine labeled analyte and S-protein where the S-protein is pipetted into the sample well and the labeled analyte is pipetted into the reagent well, in contrast to the preceding example where the reverse arrangement was used. Additionally, this Example illustrates the formulation of two reagent solutions for direct pipetting into the sample and reagent wells of the transfer disc using an automatic pipetter (Centrifichem® model P-500 pipetter). Thirdly, this Example illustrates the enhancement of dynamic range in relation to that obtained in Example XVIII by increasing the concentrations of the antibody and S-protein.
(§1) The following reagents were utilized:
a. Thyroxine-S-peptide labeled analyte: Material prepared in the manner described in Examples I-IV was diluted by a factor of 1:50 with 0.1M sodium acetate buffer of pH 5.0;
b. Antibody: Antiserum was diluted by a factor of 1:30 with 0.1M sodium acetate buffer of pH 5.0;
c. Substrate: Uridine 3'-(α-naphthyl phosphate);
d. S-protein: Sigma purified commercial material was brought to […] in 0.1M sodium acetate buffer;
e. Dye: As in Example XVIII.
f. Standards: As in Example XVIII.
A mixture consisting of 500 ul of the substrate, 100 ul of the dye, and 250 ul of the conjugate was prepared. (Reagent A)
A second solution (Reagent B) was prepared by combining 300 ul of the antibody, reagent, 300 ul of the S-protein and 150 ul of 0.1N. sodium acetate buffer.
The following protocol was utilized for the assay: The standard (20 ul) and 65 ul of de-ionized H2 O were delivered to the sample well of the transfer disc by the sample probe of the P-500 pipetter. The reagent B (50 ul) was delivered to the sample well with the second reagent probe of the pipetter. Reagent A (250 ul) was delivered to the reagent well of the transfer disc with the first reagent probe of the pipetter. All three pipetting operations were done simultaneously in one cycle. The transfer disc was then placed on the CentrifiChem® 400 for analysis. The following settings were utilized for the CentrifiChem®: temperature, 30°; filter, 520 nm; T0, 10 seconds; T, 2 minutes; Abs, 3.0 u; Blank, hold; test mode, Term; print out, Abs; concentration factor, 0; test code, 0.

thyroxine antibody [3] = assay: Reference displacement curve, thyroxine vs thyroxine-S-peptide, colorimetric, CentrifiChem 500 (Example XVIII); format: binding; conditions: for Rate: antibody
Protocol: This Example illustrates the generation of a reference displacement curve for determination of unknown concentrations of the analyte thyroxine where a colorimetric substrate is utilized along with a centrifugal fast analyzer.
as §1
a. Thyroxine S-peptide labeled analyte: Material prepared in the manner described in Examples I-IV was diluted by a factor of 1:400 with 0.1M sodium acetate buffer of pH 5.0;
b. Antibody: Antiserum was diluted by a factor of 1:300 with 0.1M sodium acetate buffer of pH 5.0;
c. Substrate: Uridine 3'-α-naphthyl phosphate;
d. S-protein: Sigma purified commercial material was brought to 2.5×10^-6 M in 0.1M sodium acetate buffer;
e. Dye: The 1,5-naphthalene disulfonic acid stabilized salt of diazo-psulfanilic acid (25 mg.) was dissolved in 1 ml of 0.1N HCl;
f. Standards: Thyroxine standards at concentrations of 0, 40, 80, 120, and 200 ng/ml were made up in a human serum containing solution.
The following settings were utilized on the CentrifiChem° 500 centrifugal fast analyzer: rotor temp, 30°; filter, 520 nm; To, 10 sec; t, 2 min; ABS 1.0 u; Blank, hold; test mode, Term; Print out, ABS; conc. factor, 0; test code 0.
The standard (20 ul), antibody and polypeptide labeled analyte were pipetted into the sample wells of channels 3 to 14 of the transfer disc. A mixture of 5 ul of the dye, 300 ul of substrate, and 20 ul of S-protein, was pipetted into the corresponding reagent wells along with 10 ul of acetate buffer. The loaded transfer disc was placed on the rotor, and the instrument was spun. […]

thyroxine antibody [4] = assay: Effect of pH on immunoreactivity in the assay of thyroxine; format: binding; conditions: pH from 5 to about 7
Text: The effect of pH on the assay should likewise be considered. […] While the naphthyl phosphate substrate described herein may be suitably used at a pH of 5, the preferred umbelliferone-type substrate needs a pH in the range of about 6 to about 8 for useful operation in the […] mode. Sensitivities in pH can perhaps be overcome by changing the charge characteristics of the labeled analyte, as by incorporating more basic groups on the analyte molecule. Also, the use of a more avid antisera for thyroxine should be helpful. It may also be helpful to modify the linking chemistry (e.g.--the site, type of linking groups).

RNase 1-118 = conditions: combined with RNase 1-118; cited from earlier work

Molecule: N[C@@H](Cc1cc(I)c(Oc2cc(I)c(O)c(I)c2)c(I)c1)C(=O)O [thyroxine]
- Rate (thyroxine antibody [1]; thyroxine standard 30 ng/ml): 13.00 mv/min and 13.57 mv/min
- Rate (thyroxine antibody [1]; thyroxine standard 60 ng/ml): 13.30 mv/min and 13.40 mv/min
- Rate (thyroxine antibody [1]; thyroxine standard 120 ng/ml): 13.68 mv/min
- Rate (thyroxine antibody [1]; thyroxine standard 240 ng/ml): 14.15 mv/min and 14.17 mv/min
- % B/B0 (% bound fraction) (thyroxine antibody [1]; standard 30 ng/ml): 67%
- Rate (average of duplicates) (thyroxine antibody [1]; standard 30 ng/ml): 13.28 mv/min
- % B/B0 (% bound fraction) (thyroxine antibody [1]; standard 60 ng/ml): 64%
- Rate (average of duplicates) (thyroxine antibody [1]; standard 60 ng/ml): 13.35 mv/min
- % B/B0 (% bound fraction) (thyroxine antibody [1]; standard 120 ng/ml): 51%
- Rate (average of duplicates) (thyroxine antibody [1]; standard 120 ng/ml): 13.68 mv/min
- % B/B0 (% bound fraction) (thyroxine antibody [1]; standard 240 ng/ml): 32%
- Rate (average of duplicates) (thyroxine antibody [1]; standard 240 ng/ml): 14.16 mv/min
- spread in rate covering the range of standard concentrations (thyroxine antibody [2]; 0-200 ng/ml): 12 milliabsorbance units/min.
- spread in rate relative to Example XVIII (thyroxine antibody [2]; 0-200 ng/ml): about 4 times
- 10^3 Rate (thyroxine antibody [2]; standard 40 ng/ml): 57.8 a.u./min. and 58.3 a.u./min.
- 10^3 Rate (thyroxine antibody [2]; standard 80 ng/ml): 60.4 a.u./min. and 59.5 a.u./min.
- 10^3 Rate (thyroxine antibody [2]; standard 120 ng/ml): 62.0 a.u./min. and 64.8 a.u./min.
- 10^3 Rate (thyroxine antibody [2]; standard 200 ng/ml): 65.3 a.u./min.
- rate response between the 0 standard and 200 ng/ml standard (thyroxine antibody [3]; 0 to 200 ng/ml): 3.5 m.a.u./min.
- Rate (thyroxine antibody [3]; standard 40 ng/ml): 0.0208 a.u./min and 0.0222 a.u./min
- Rate (thyroxine antibody [3]; standard 80 ng/ml): 0.0217 a.u./min and 0.0218 a.u./min
- Rate (thyroxine antibody [3]; standard 120 ng/ml): 0.0224 a.u./min
- Rate (thyroxine antibody [3]; standard 200 ng/ml): 0.0230 a.u./min
- immunoreactivity as the pH is increased (thyroxine antibody [4]): immunoreactivity is decreased

Molecule: tetradecapeptide 111 to 124: synthesized tetradecapeptide corresponding to residues 111 to 124 of the original RNase (EGNPYVPVHFDASV; UniProt P61823 137-150, looked up, fragment)
- recovery of catalytic activity of RNase (RNase 1-118): essentially the full catalytic activity of RNase was recovered
